Laboratory results reported in paper PMC3192784, “A Potent Inhibitor of SIK2, 3, 3′, 7-Trihydroxy-4′-Methoxyflavon (4′-O-Methylfisetin), Promotes Melanogenesis in B16F10 Melanoma Cells” (PLoS ONE, 2011).

Experiments:
[1] = biological target: T1, SIK2 (salt inducible kinase 2) (Mus musculus, UniProt Q8CFH6); assay: in vitro kinase ELISA with GST-TORC2 peptide substrate; format: biochemical
T1 construct: GST-SIK2 expressed in COS-7 cells

[2] = biological target: T1, SIK2 (salt inducible kinase 2); assay: as above; format: biochemical; remark: listed apart in the source

T1 sequence (Q8CFH6 whole entry): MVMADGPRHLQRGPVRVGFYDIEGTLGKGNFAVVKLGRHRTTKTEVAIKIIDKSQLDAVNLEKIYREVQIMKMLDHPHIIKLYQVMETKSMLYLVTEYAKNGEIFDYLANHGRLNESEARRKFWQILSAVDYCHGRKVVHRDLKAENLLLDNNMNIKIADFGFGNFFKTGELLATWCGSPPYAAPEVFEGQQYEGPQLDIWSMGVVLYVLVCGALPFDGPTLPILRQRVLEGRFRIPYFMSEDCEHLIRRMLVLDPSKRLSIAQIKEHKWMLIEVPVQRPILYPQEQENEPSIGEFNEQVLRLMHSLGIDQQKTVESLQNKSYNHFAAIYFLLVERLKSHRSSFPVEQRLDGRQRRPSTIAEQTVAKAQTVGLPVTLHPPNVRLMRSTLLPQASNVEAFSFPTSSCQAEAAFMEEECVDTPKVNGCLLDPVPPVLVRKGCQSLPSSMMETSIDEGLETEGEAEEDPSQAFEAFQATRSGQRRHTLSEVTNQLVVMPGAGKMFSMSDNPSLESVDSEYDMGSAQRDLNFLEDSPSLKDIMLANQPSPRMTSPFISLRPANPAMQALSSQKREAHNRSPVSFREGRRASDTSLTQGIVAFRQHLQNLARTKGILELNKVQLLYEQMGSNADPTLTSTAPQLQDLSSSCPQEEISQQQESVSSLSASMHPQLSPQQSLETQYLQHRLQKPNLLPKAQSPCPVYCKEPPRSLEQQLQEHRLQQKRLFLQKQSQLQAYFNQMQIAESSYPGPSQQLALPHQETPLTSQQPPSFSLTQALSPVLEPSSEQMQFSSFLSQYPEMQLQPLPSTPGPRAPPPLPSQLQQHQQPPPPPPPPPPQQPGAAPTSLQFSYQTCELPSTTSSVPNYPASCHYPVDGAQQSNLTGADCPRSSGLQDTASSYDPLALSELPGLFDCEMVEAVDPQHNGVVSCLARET

| in vitro kinase ELISA with GST-TORC2 peptide substrate [1] | SMILES | IC50 [2] |
| --- | --- | --- |
| 50 to 500 nM | COc1ccc(-c2cc(=O)c3c(O)cc(O)cc3o2)cc1O [diosmetin] |  |
| ~ 50 nM | O=c1c(O)c(-c2ccc(O)c(O)c2)oc2cc(O)ccc12 [fisetin] |  |
|  | O=c1c(O)c(-c2ccc(O)c(O)c2)oc2cc(O)cc(O)c12 [quercetin] | 500 nM |

| SMILES | in vitro kinase ELISA with GST-TORC2 peptide substrate [1] | IC50 [2] |
| --- | --- | --- |
| O=c1cc(-c2ccc(O)c(O)c2)oc2cc(O)cc(O)c12 [luteolin] | efficiency of SIK2-kinase inhibition in vitro by their non-methylated cognates (fisetin > luteolin > quercetin) |  |
